Results from patent US20250186474A1 (CHINA CHEMICAL & PHARMACEUTICAL CO., LTD., priority 2023, published 2025).

Assays:
[1] = Stress test of compositions with different EIDD-1931 concentrations (60° C., 7 and 14 days); assay type: physicochemical; settings: API
Description: Therefore, the concentration of EIDD-1931 was adjusted, and another stress test was conducted to evaluate how the resulting drugs degrade in 7 and 14 days.

[2] = Solubility / precipitation in the pharmaceutical solution composition; assay type: physicochemical; settings: drug prepared with 20 mg/ml

- Single-impurity percentage [1]: 0.01/0.01%
- total-impurity percentage [1]: 0.01/0.01%
- Theoretical value ([1]; impurity test): 93.25%
- precipitation [2]: had precipitation issues
Compound: O=c1nc(NO)ccn1[C@@H]1O[C@H](CO)[C@@H](O)[C@H]1O [EIDD-1931, β-D-N4-hydroxycytidine]
